# According to patent US20080103205A1, “Pesticidal compositions and methods of use” (priority 2006, published 2008):
# Where two headings read alike, the source gives them in different places.
# Experiments:
# Meloidogyne incognita = test: Toxicity test, J2 juveniles of Meloidogyne incognita, 96 well micro plate; assay type: in vivo; details: Meloidogyne incognita
# Experimental: Methodology: Toxicity tests were conducted using J2 juveniles of Meloidogyne incognita adult Caenorhabditis elegans collected from nematode-infested tomato plant roots and culture Petri plates, respectively. Test concentrations of 50, 100, 200, 300, or 400 ppm were prepared in 0.2% dimethylsulfoxide (DMSO) in tap water. Aliquots (300 microliters (ul)) were applied to a 96 well micro plate and a 20 ul aqueous solution containing nematodes was added. The number of nematodes in 20 ul ranged from 17 to 30. Micro plates were sealed with Parafilm™ and incubated at room temperature. Similar tests conducted with 0.2% DMSO in tap water served as controls. Nematode mortality was checked at 24, 48, 72, 120, and 168 hr after incubation. Nematodes that were motionless for 30 sec when observed under a stereomicroscope were considered paralyzed and included in mortality counts. Each concentration was replicated five times and mean percent mortality was calculated after correcting for control mortality using Abbott's formula.
# Data Analysis: Mortality data were analyzed using PROC PROBIT (SAS) program and LC50 values were estimated.
# [1] = tested on: Meloidogyne incognita eggs; test: M. incognita egg hatching; assay type: in vivo
# Experimental: Meloidogyne incognita (plant parasitic nematode) eggs were collected from tomato plant roots and were suspended in water. The solution was either diluted or concentrated to adjust the egg load to about 5000/ml. AT stock solutions prepared in DMSO and 300 ul of test solution was placed in a well, along with 20 ul of aqueous solution containing eggs. The number of eggs in 20 ul solution ranged from 115 to 143 (n=10). Each treatment (2, 5, 10, 20, or 40 ppm) was replicated 5 times. Microplates were sealed with Parafilm™ and incubated at room temperature. Similar tests conducted with 0.2% DMSO alone served as controls. Egg hatching was monitored at 24, 72, 120, and 168 hr after incubation. Both moving and non-moving nematodes were counted to arrive at the number of eggs hatched. Proportion of egg hatch was calculated as the number of juveniles divided by total number of eggs.
# VSCC blockers effect on M. incognita egg hatching is shown in the following tables where % hatched is rounded to the nearest percentage point and where “% C*” is % hatch, normalized to control.
# [2] = 24 h, read-out: Corrected Mortality (%)
# [3] = 48 h, read-out: Corrected Mortality (%)
# [4] = 72 h, read-out: Corrected Mortality (%)
# [5] = 120 h, read-out: Corrected Mortality (%)
# [6] = 168 h, read-out: Corrected Mortality (%)
smiles,measurement,setting,value
"O=C(O)c1c2ccccc2cc2ccccc12 [9-AC, anthracene-9-carboxylic acid]",mortality at 50 ppm,Meloidogyne incognita; 24 h,11%
same,mortality at 100 ppm,Meloidogyne incognita; 24 h,12%
same,mortality at 200 ppm,Meloidogyne incognita; 24 h,13%
same,mortality at 300 ppm,Meloidogyne incognita; 24 h,16%
same,mortality at 400 ppm,Meloidogyne incognita; 24 h,23%
same,mortality at 50 ppm,Meloidogyne incognita; [2],10%
same,mortality at 100 ppm,Meloidogyne incognita; [2],11%
same,mortality at 200 ppm,Meloidogyne incognita; [2],12%
same,mortality at 300 ppm,Meloidogyne incognita; [2],15%
same,mortality at 400 ppm,Meloidogyne incognita; [2],22%
same,mortality at 50 ppm,Meloidogyne incognita; 48 h,21%
same,mortality at 100 ppm,Meloidogyne incognita; 48 h,27%
same,mortality at 200 ppm,Meloidogyne incognita; 48 h,28%
same,mortality at 300 ppm,Meloidogyne incognita; 48 h,37%
same,mortality at 400 ppm,Meloidogyne incognita; 48 h,49%
same,mortality at 50 ppm,Meloidogyne incognita; [3],17%
same,mortality at 100 ppm,Meloidogyne incognita; [3],23%
same,mortality at 200 ppm,Meloidogyne incognita; [3],24%
same,mortality at 300 ppm,Meloidogyne incognita; [3],34%
same,mortality at 400 ppm,Meloidogyne incognita; [3],46%
same,mortality at 50 ppm,Meloidogyne incognita; 72 h,36%
same,mortality at 100 ppm,Meloidogyne incognita; 72 h,43%
same,mortality at 200 ppm,Meloidogyne incognita; 72 h,49%
same,mortality at 300 ppm,Meloidogyne incognita; 72 h,60%
same,mortality at 400 ppm,Meloidogyne incognita; 72 h,74%
same,mortality at 50 ppm,Meloidogyne incognita; [4],32%
same,mortality at 100 ppm,Meloidogyne incognita; [4],39%
same,mortality at 200 ppm,Meloidogyne incognita; [4],46%
same,mortality at 300 ppm,Meloidogyne incognita; [4],57%
same,mortality at 400 ppm,Meloidogyne incognita; [4],72%
same,mortality at 50 ppm,Meloidogyne incognita; 120 h,58%
same,mortality at 100 ppm,Meloidogyne incognita; 120 h,65%
same,mortality at 200 ppm,Meloidogyne incognita; 120 h,67%
same,mortality at 300 ppm,Meloidogyne incognita; 120 h,84%
same,mortality at 400 ppm,Meloidogyne incognita; 120 h,97%
same,mortality at 50 ppm,Meloidogyne incognita; [5],54%
same,mortality at 100 ppm,Meloidogyne incognita; [5],62%
same,mortality at 200 ppm,Meloidogyne incognita; [5],64%
same,mortality at 300 ppm,Meloidogyne incognita; [5],83%
same,mortality at 400 ppm,Meloidogyne incognita; [5],97%
same,mortality at 50 ppm,Meloidogyne incognita; 168 h,81%
same,mortality at 100 ppm,Meloidogyne incognita; 168 h,86%
same,mortality at 200 ppm,Meloidogyne incognita; 168 h,91%
same,mortality at 300 ppm,Meloidogyne incognita; 168 h,100%
same,mortality at 400 ppm,Meloidogyne incognita; 168 h,100%
same,mortality at 50 ppm,Meloidogyne incognita; [6],79%
same,mortality at 100 ppm,Meloidogyne incognita; [6],84%
same,mortality at 200 ppm,Meloidogyne incognita; [6],89%
same,mortality at 300 ppm,Meloidogyne incognita; [6],100%
same,mortality at 400 ppm,Meloidogyne incognita; [6],100%
same,Eggs Hatched %,"[1]; 2 ppm, 24 hr",10%
same,"Eggs Hatched % C* (% hatch, normalized to control)","[1]; 2 ppm, 24 hr",100%
same,Eggs Hatched No.,"[1]; 2 ppm, 24 hr",65
same,Eggs Hatched %,"[1]; 2 ppm, 72 hr",15%
same,"Eggs Hatched % C* (% hatch, normalized to control)","[1]; 2 ppm, 72 hr",94%
same,Eggs Hatched No.,"[1]; 2 ppm, 72 hr",101
same,Eggs Hatched %,"[1]; 2 ppm, 120 hr",20%
same,"Eggs Hatched % C* (% hatch, normalized to control)","[1]; 2 ppm, 120 hr",91%
same,Eggs Hatched No.,"[1]; 2 ppm, 120 hr",134
same,Eggs Hatched %,"[1]; 2 ppm, 168 hr",25%
same,"Eggs Hatched % C* (% hatch, normalized to control)","[1]; 2 ppm, 168 hr",91%
same,Eggs Hatched No.,"[1]; 2 ppm, 168 hr",167
same,Eggs Hatched %,"[1]; 5 ppm, 24 hr",9%
same,"Eggs Hatched % C* (% hatch, normalized to control)","[1]; 5 ppm, 24 hr",90%
same,Eggs Hatched No.,"[1]; 5 ppm, 24 hr",67
same,Eggs Hatched %,"[1]; 5 ppm, 72 hr",14%
same,"Eggs Hatched % C* (% hatch, normalized to control)","[1]; 5 ppm, 72 hr",87%
same,Eggs Hatched No.,"[1]; 5 ppm, 72 hr",98
same,Eggs Hatched %,"[1]; 5 ppm, 120 hr",18%
same,"Eggs Hatched % C* (% hatch, normalized to control)","[1]; 5 ppm, 120 hr",82%
same,Eggs Hatched No.,"[1]; 5 ppm, 120 hr",129
same,Eggs Hatched %,"[1]; 5 ppm, 168 hr",22%
same,"Eggs Hatched % C* (% hatch, normalized to control)","[1]; 5 ppm, 168 hr",79%
same,Eggs Hatched No.,"[1]; 5 ppm, 168 hr",155
same,Eggs Hatched %,"[1]; 10 ppm, 24 hr",9%
same,"Eggs Hatched % C* (% hatch, normalized to control)","[1]; 10 ppm, 24 hr",90%
same,Eggs Hatched No.,"[1]; 10 ppm, 24 hr",62
same,Eggs Hatched %,"[1]; 10 ppm, 72 hr",13%
same,"Eggs Hatched % C* (% hatch, normalized to control)","[1]; 10 ppm, 72 hr",81%
same,Eggs Hatched No.,"[1]; 10 ppm, 72 hr",90
same,Eggs Hatched %,"[1]; 10 ppm, 120 hr",17%
same,"Eggs Hatched % C* (% hatch, normalized to control)","[1]; 10 ppm, 120 hr",77%
same,Eggs Hatched No.,"[1]; 10 ppm, 120 hr",118
same,Eggs Hatched %,"[1]; 10 ppm, 168 hr",20%
same,"Eggs Hatched % C* (% hatch, normalized to control)","[1]; 10 ppm, 168 hr",71%
same,Eggs Hatched No.,"[1]; 10 ppm, 168 hr",141
same,Eggs Hatched %,"[1]; 20 ppm, 24 hr",9%
same,"Eggs Hatched % C* (% hatch, normalized to control)","[1]; 20 ppm, 24 hr",90%
same,Eggs Hatched No.,"[1]; 20 ppm, 24 hr",59
same,Eggs Hatched %,"[1]; 20 ppm, 72 hr",12%
same,"Eggs Hatched % C* (% hatch, normalized to control)","[1]; 20 ppm, 72 hr",75%
same,Eggs Hatched No.,"[1]; 20 ppm, 72 hr",80
same,Eggs Hatched %,"[1]; 20 ppm, 120 hr",15%
same,"Eggs Hatched % C* (% hatch, normalized to control)","[1]; 20 ppm, 120 hr",68%
same,Eggs Hatched No.,"[1]; 20 ppm, 120 hr",102
same,Eggs Hatched %,"[1]; 20 ppm, 168 hr",18%
same,"Eggs Hatched % C* (% hatch, normalized to control)","[1]; 20 ppm, 168 hr",64%
same,Eggs Hatched No.,"[1]; 20 ppm, 168 hr",122
same,Eggs Hatched %,"[1]; 40 ppm, 24 hr",9%
same,"Eggs Hatched % C* (% hatch, normalized to control)","[1]; 40 ppm, 24 hr",90%
same,Eggs Hatched No.,"[1]; 40 ppm, 24 hr",60
same,Eggs Hatched %,"[1]; 40 ppm, 72 hr",12%
same,"Eggs Hatched % C* (% hatch, normalized to control)","[1]; 40 ppm, 72 hr",75%
same,Eggs Hatched No.,"[1]; 40 ppm, 72 hr",76
same,Eggs Hatched %,"[1]; 40 ppm, 120 hr",14%
same,"Eggs Hatched % C* (% hatch, normalized to control)","[1]; 40 ppm, 120 hr",64%
same,Eggs Hatched No.,"[1]; 40 ppm, 120 hr",94
same,Eggs Hatched %,"[1]; 40 ppm, 168 hr",15%
same,"Eggs Hatched % C* (% hatch, normalized to control)","[1]; 40 ppm, 168 hr",54%
same,Eggs Hatched No.,"[1]; 40 ppm, 168 hr",103
